Source: patent US12134785B2, “Differentiation of pluripotent stem cells to form renal organoids” (The University of Queensland, priority 2014, dated 2024)

Legend:
[1] = test system: kidney organoids; test: Regulation of nephrogenesis in the kidney organoid (CHIR99021 pulse, FGF9); format: cell-based, human
Method: All experiments presented used the previously described wildtype human iPSC line CRL1502 (clone#C32) generated using episomal reprogramming^28. Undifferentiated human iPSCs were maintained on the mouse embryonic fibroblasts (MEFs) (Millipore) as a feeder layer with human ES cell (hES) medium as described previously^1. Cells were authenticated and tested for the mycoplasma infection^28. Human iPSCs were plated on a Matrigel-coated (Millipore) culture dish and cultured in MEF-conditioned hES medium (MEF-CM) until reaching to 60-100% confluent. Then, cells were again plated on a Matrigel-coated at 5,000 cells/cm^2 in MEF-CM. Next day, cells reached to 40-50% of confluent, cells were treated with 8 μM of CHIR99021 in APEL basal medium ([…] Technologies) supplemented with Antibiotic-Antimycotic (Life Technologies) for 2-5 days, followed by FGF9 (200 ng mL^−1) and Heparin (1 μg mL^−1) for another […], with changing medium every second day. At day 7, cells were collected and dissociated into single cells using Trypsin or TrypLE select (Life Technologies). Cells (0.5×10^6) were spun down at ×400 g for 2 min to form a pellet and then transferred onto a Transwell 0.4 μm pore polyester membrane (#CLS3450 Corning). […] Culture medium should not exceed above a membrane. For the differentiation in monolayer cultures, cells post CHIR99021 induction were treated by FGF9 (200 ng mL^−1) and Heparin (1 μg mL^−1) for 10 days, followed by APEL basal medium for another 6 days. In some experiments, RA (0.1 μM) or AGN193109 (5 μM) were added to FGF9 medium. A step-by step protocol describing kidney organoid generation was provided in Example 1.

[2] = test system: human iPSC line CRL1502 (clone#C32); test: Duration of initial Wnt signaling (CHIR99021) prior to FGF9: AI/PI markers by qPCR and immunofluorescence; format: cell-based
Method: (§1) All experiments presented used the previously described wildtype human iPSC line CRL1502 (clone#C32) generated using episomal reprogramming^28. Undifferentiated human iPSCs were maintained on the mouse embryonic fibroblasts (MEFs) (Millipore) as a feeder layer with human ES cell (hES) medium as described previously^1. Cells were authenticated and tested for the mycoplasma infection^28. Human iPSCs were plated on a Matrigel-coated (Millipore) culture dish and cultured in MEF-conditioned hES medium (MEF-CM) until reaching to 60-100% confluent. Then, cells were again plated on a Matrigel-coated at 5,000 cells/cm^2 in MEF-CM. Next day, cells reached to 40-50% of confluent, cells were treated with 8 μM of CHIR99021 in APEL basal medium ([…] Technologies) supplemented with Antibiotic-Antimycotic (Life Technologies) for 2-5 days, followed by FGF9 (200 ng mL^−1) and Heparin (1 μg mL^−1) for another […], with changing medium every second day. At day 7, cells were collected and dissociated into single cells using Trypsin or TrypLE select (Life Technologies). Cells (0.5×10^6) were spun down at ×400 g for 2 min to form a pellet and then transferred onto a Transwell 0.4 μm pore polyester membrane (#CLS3450 Corning). Pellets were treated with 5 μM of CHIR99021 in APEL for 1 h, and then cultured with FGF9 (200 ng mL^−1) and Heparin (1 μg mL^−1) for 5 days, followed by another 6-13 days in APEL basal medium, with changing medium three times a week. Culture medium should not exceed above a membrane. For the differentiation in monolayer cultures, cells post CHIR99021 induction were treated by FGF9 (200 ng mL^−1) and Heparin (1 μg mL^−1) for 10 days, followed by APEL basal medium for another 6 days. In some experiments, RA (0.1 μM) or AGN193109 (5 μM) were added to FGF9 medium. A step-by step protocol describing kidney organoid generation was provided in Example 1.
For monolayer cells, antibody staining was performed as described previously^1. For the kidney organoid, organoids were fixed with 2% paraformaldehyde in PBS for 20 min at 4° C. followed by 3 times wash with PBS. Then organoids were blocked with 10% donkey serum, 0.3% Triton X/PBS for 2-3 h at room temperature and incubated with primary antibodies overnight at 4° C. After 5 times washing with 0.1% Triton X/PBS. secondary antibodies were incubated for 4 h at room temperature. The following antibodies and dilutions were used: rabbit anti-PAX2 (1:300, #71-6,000, Zymed Laboratories), goat anti-SIX1 (1:300, #sc-9709, Santa Cruz Biotechnology), rabbit anti-SIX2 (1:300, #11562-1-AP, Proteintech), mouse anti-ECAD (1:300, #610181. BD Biosciences), rabbit anti-WT1 (1:100, #sc-192, Santa Cruz Biotechnology), mouse anti-HOXD11 (1:300, #SAB1403944, Sigma-Aldrich), goat anti-GATA3 (1:300, AF2605, R&D Systems). rabbit anti-JAG1 (1:300, #ab7771, Abcam), goat anti-Cubilin (1:150, #sc-20607. Santa Cruz Biotechnology), sheep anti-NPHS1 (1:300, AF4269, R&D Systems), LTL-biotin-conjugated (1:300, B-1325, Vector Laboratories), DBA-biotin-conjugated (1:300, B-1035, Vector Laboratories), mouse anti-KRT8 (1:300, #TROMA, DSHB), mouse anti-CD31 (1:300, #555444, BD Pharmingen), rabbit anti-KDR (1:300, #2479, Cell Signaling Technology), goat anti-SOX17 (1:300, #AF1924, R&D Systems), rabbit anti-NG2 (1:300, #AB5320, Merck Millipore), rabbit anti-SMA (1:300, #ab15267. Abcam), mouse anti-PDGFRA (1:200, #556001. BD Pharmingen), rabbit anti-Laminin (1:300, #L9393, Sigma-Aldrich), rabbit anti-UMOD (1:300, #BT-590, Biomedical Technologies), mouse anti-MEIS1 (1:300, #ATM39795, activemotif), goat anti-FOXD1 (1:200, #sc-47585, Santa Cruz Biotechnology) and rabbit anti-cleaved-CASP3 (1:300, #9661, Cell Signaling Technology). Images were taken using a Nikon Ti-U microscope or a Zeiss LSM 780 confocal microscope. All immunofluorescence analyses were successfully repeated more than three times and representative images are shown. […]

[3] = test system: human iPSC line CRL1502 (clone#C32); test: RA signaling control of A-P fate patterning of the IM (RA or AGN193109 with FGF9, monolayer differentiation, immunofluorescence); format: cell-based; conditions: day 18
Method: as §1
For monolayer cells, antibody staining was performed as described previously^1. For the kidney organoid, organoids were fixed with 2% paraformaldehyde in PBS for 20 min at 4° C. followed by 3 times wash with PBS. […]

[4] = test system: IM cells; test: Preliminary data on differentiation of IM cells at different RA / AGN193109 concentrations; format: cell-based; conditions: higher concentrations of AGN193109
[5] = longer duration of CHIR99021, day 7
[6] = shorter duration of CHIR99021, day 7

Structure (SMILES)	nephrogenesis in organoids ([1]; 5 μM CHIR99021 for 1 h immediately post aggregation vs no pulse)	formation of aggregates ([1]; 45 minute pulse of high CHIR (5 μM) immediately upon reaggregation)	maximal nephron number per organoid ([1]; pulse of CHIR99021 for one hour after forming a pellet)	UE induction (GATA3+PAX2+ECAD+) ([2]; fewer days in CHIR, after 18 days of culture)	induction of UE and MM in monolayer culture ([2]; initial 4 days of CHIR99021)	expression of the PSM markers TBX6 and T (qPCR) ([2]; longer days in CHIR99021)	induction of MM (PAX2+ECAD−) and its derivatives (PAX2+ECAD+) ([2]; longer days in CHIR, after 18 days of culture)	PI markers HOXD11 and EYA1 (qPCR) ([2]; longer days of 8 μM CHIR99021, day 7)	AI (GATA3) by immunofluorescence [2, 5]	PI (HOXD11) by immunofluorescence [2, 5]	AI (GATA3) by immunofluorescence [2, 6]	PI (HOXD11) by immunofluorescence [2, 6]	AI markers LHX1 and GATA3 (qPCR) ([2]; shorter period of 8 μM CHIR99021, day 7)	AI specification of early migrating cells ([3]; 3 days CHIR99021 followed by FGF9 + AGN)	induction of the MM lineage ([3]; AGN193109 (5 μM) with FGF9 after CHIR99021, monolayer)	UE induction (GATA3+PAX2+ECAD+) ([3]; RA (0.1 μM) or AGN193109 (5 μM) with FGF9 after CHIR99021, monolayer)	proportion of metanephric mesenchyme cells [4]
Cc1c[nH]c(-c2cnc(NCCNc3ccc(C#N)cn3)nc2-c2ccc(Cl)cc2Cl)n1 [CHIR99021]	promoted nephrogenesis	enhanced	required	dominant UE induction	induction of both the UE and MM	Prolonged expression	preferential induction of MM	increased	less	more	more	less	induced				
Cc1ccc(C2=CCC(C)(C)c3ccc(C#Cc4ccc(C(=O)O)cc4)cc32)cc1 [AGN193109]														inhibited	enhanced	inhibited	relative increase
